# Data as given in patent US9950067B2, “Trans carotenoids, their synthesis, formulation and uses” (Diffusion Pharmaceuticals, LLC, priority 2005, dated 2018).
# Values joined by “and” are separate entries in the source; they are usually repeats but may differ in a detail not shown here. Equal values may be shown once. “Also recorded” adds a separate entry of the source. Read-outs that look alike come from different tables or passages of the source.
# Tests used:
# [1] = Solubility in water and aqueous formulations; type: physicochemical
# Experimental: Formulation of TSC with Cyclodextrin-Mannitol • 1. Make up a solution containing equal-molar concentrations of the cyclodextrin and the TSC. Solutions containing over 20 mg TSC/ml of solution can be made this way. First, add the cyclodextrin to an injectable water, then add the TSC to that solution. • 2. Add d-mannitol, so that the final concentration is around 20 to 50 mg/ml of mannitol in solution. • 3. This solution can be added to isotonic saline in order to dilute it and still maintain the proper osmolality. Either add the solution to saline or add saline to the solution.
# Formulation of TSC with Mannitol/Acetic Acid • 1. Make up a 0.01 M acetic acid solution in distilled water. • 2. […] Add the 0.0005 M acetic acid solution, slowly, to TSC. […] Add d-mannitol to above solution at a concentration of 50 mg/ml in order to obtain the proper osmolality. The pH of this solution is around 8 to 8.5. It should be close to being an isotonic solution, and, as such, can be injected directly into the blood stream.
# [2] = Stability of TSC in formulation versus pH; conditions: aqueous formulation
# [3] = tested on: rats subjected to hemorrhagic shock; assay: Treatment of hemorrhagic shock; type: in vivo; conditions: for treatment of hemorrhagic shock: rats
# [4] = tested on: HCT116 human colon carcinoma tumors; assay: Radiation sensitization of tumors grown on mice
# Experimental: There were six study groups of five mice per group (for a total of 30 mice) designated Study Groups 1 through 6. All mice in the study were injected intravenously with either a TSC dose or a saline control for five successive days. As shown below, Study Groups 1, 2 and 3 received TSC doses A, B and C, which corresponds to 0.07, 0.14 and 0.28 mg/kg respectively for the study B, and 1.35, 0.54 and 0.18 mg/kg respectively for the study A.
# Group 4 was injected as a saline control. At 45 minutes post-injection on each of the five successive days, the tumors of Study Groups 1-4 received 2 Gy irradiation. Study Group 5 received TSC only and Study Group 6 received saline only, and neither Study Group 5 nor 6 received irradiation. Tumor volumes in all Study Groups were measured weekly for the earlier of 4 weeks or until the tumors reached 4 times the volume at the start of treatment.
# [5] = Preclinical study of myocardial infarction; type: in vivo; conditions: injected intravenously
# [6] = Oral administration, plasma concentrations; type: in vivo, rats; conditions: with γ-cyclodextrin
# Experimental: PE-50 tubing was used to deliver formulated TSC into the stomachs of rats, and plasma concentrations were measured after that. Rats were fasted for 24 hours prior to each experiment. Water was given ad libitum and coprophagy was prevented by using cages with wire-mesh floors. One study involved rats that were allowed food ad libitum after TSC administration and another study involved rats in which food was withheld after TSC administration.
# [7] = Intramuscular administration, absorption into the blood stream; type: in vivo, rats
# Experimental: TSC is not absorbed via an intramuscular route when simply dissolved in de-ionized water; however, the addition of a cyclodextrin (as in the formulated drug product) results in absorption into the blood stream. Small volumes (0.05 mL) were injected into each thigh muscle of rats with TSC formulated with 2-hydroxypropyl-β-cyclodextrin or γ-cyclodextrin and dissolved in water.
# [8] = Pulmonary administration, absorption into the blood stream; type: in vivo, rats
# Experimental: In this method, the rats were intubated and a small volume (0.1 mL usually) of the TSC solution was injected followed by two 3-mL puffs of air.
# Additional studies have been done with pulmonary dosing in which the effect of the volume of liquid injected into the trachea as well as using TSC in its formulated drug product form were investigated. The formulated drug product contained 8% γ-cyclodextrin, 2.3% mannitol and 50 mM glycine and 20 mg/mL TSC, reconstituted in sterile water. Sterile saline (0.9%) was added as a diluent in these studies in order to achieve the desired dosages. The same dose (937 μg/kg) was administered to all rats.
# [9] = natural bipolar carotenoids, background; cited from earlier work
# [10] = pulmonary, formulated drug product, 937 μg/kg
smiles,measurement,setting,value
"CCOC(=O)/C(C)=C/C=C/C(C)=C/C=C/C=C(C)/C=C/C=C(\C)C(=O)OCC [Compound E, Diethyl 2,6,11,15-Tetramethyl-hexadeca-2E,4E,6E,8E,10E,12E,14E-heptaene-1,16-diotate]",solubility,[1]; in water and in THF,poorly soluble
"CC(/C=C/C=C(\C)C(=O)[O-])=C\C=C\C=C(C)\C=C\C=C(/C)C(=O)[O-].[Na+].[Na+] [TSC, trans sodium crocetinate]",stability versus pH,[2],more stable at higher pHs
same,effect on tachycardia,[3]; rats subjected to hemorrhagic shock,reduce tachycardia
same,treatment of hemorrhagic shock,[3]; intramuscular injection,successfully treated
same,treatment of hemorrhagic shock,[3]; pulmonary route,successfully treated
same,optimal dosage,"[4]; Study A, i.v. 5 days, 2 Gy irradiation 45 minutes post-injection",0.18 mg/kg
same,dosages that worked equally well,"[4]; Study B, i.v. 5 days, 2 Gy irradiation 45 minutes post-injection",0.07 mg/kg and 0.14 mg/kg
same,effect on tumor growth,"[4]; TSC alone, no irradiation, FIG. 3",does not appreciably affect tumor growth
same,effect on ventricular fibrillation,[5],prevented ventricular fibrillation
same,solubility,"[1]; 0.0005 M acetic acid solution, aqueous buffer, thermodynamic from solid, read-out: Maximum solubility",6000 to 6500 µg/mL
same,dissolution in acetic acid,[1]; 0.001 M acetic acid,doesn't dissolve
same,TSC content of aqueous solution,[1]; TSC and gamma-cyclodextrin,≤ 44 milligrams of TSC per ml of solution
same,TSC content of solution,[1]; formulated with cyclodextrin and mannitol,over 20 mg TSC/ml of solution
same,solubility in water,[1]; water,soluble in water
same,effect of γ-cyclodextrin on oral absorption,[6],enhances absorption
same,bioavailability,"[7]; rat, plasma, im, 3347 μg/kg body weight, rats, intramuscular 3347 μg/kg with 14 mg 2-hydroxypropyl-β-cyclodextrin per kg",27%
same,peak plasma TSC concentration,"[7]; rats, intramuscular 3347 μg/kg with 14 mg 2-hydroxypropyl-β-cyclodextrin per kg",4.8 µg/mL
same,absorption via intramuscular route,[7]; simply dissolved in de-ionized water,not absorbed
same,absorption via intramuscular route,[7]; with γ-cyclodextrin,successful absorption into the systemic circulation; also recorded: absorbed into the blood stream
same,pulmonary absorption without cyclodextrin,[8]; TSC in pH'd di-water,successful absorption into the blood stream
same,effect of larger injection volume of the same dose on bioavailability,"[8]; pulmonary, 937 μg/kg",greater bioavailability
same,effect of γ-cyclodextrin on absorption into the systemic circulation,[8]; [10],enhances absorption
same,effect of γ-cyclodextrin on plasma clearance,[8]; [10],increasing plasma clearance
same,time to reach the maximum plasma concentration,"[8]; rats, pulmonary",< 5 min
CC(/C=C/C=C(\C)C(=O)O)=C\C=C\C=C(C)\C=C\C=C(/C)C(=O)O [crocetin],solubility in water,[9],only sparingly soluble in water
CC(/C=C/C=C(\C)C(=O)O[C@@H]1O[C@H](CO[C@@H]2O[C@H](CO)[C@@H](O)[C@H](O)[C@H]2O)[C@@H](O)[C@H](O)[C@H]1O)=C\C=C\C=C(C)\C=C\C=C(/C)C(=O)O[C@@H]1O[C@H](CO[C@@H]2O[C@H](CO)[C@@H](O)[C@H](O)[C@H]2O)[C@@H](O)[C@H](O)[C@H]1O [crocin],solubility in water,[9],significant solubility in water
